Reference: US20260021092A1, “STRUCTURE-BASED DESIGN OF A NOVEL CLASS OF DRUGS FOR NEURODEGENERATIVE DISEASE” (The Regents of the University of California, priority 2022, published 2026)
“Also recorded” adds a separate entry of the source.

Columns and labels:
[1] = system: Neuro-2a (N2a) neuronal cells; test: MTT cell viability assay of N2a cells treated with alpha-synuclein fibrils; assay type: cell-based; conditions: final alpha-synuclein fibril concentration of 1 μM, various compound concentrations
Procedure: Alpha-synuclein aggregates, particularly oligomers, are known to be cytotoxic to neurons^4. Thus, we next determined if disaggregation of alpha-synuclein aggregates by our compounds mitigates their cytotoxicity. […] The fibril and compound mixtures were then added to cultured Neuro-2a (N2a) neuronal cells, to a final alpha-synuclein fibril concentration of 1 μM.
All experiments were performed in triplicate. […] Removal from the incubator and replacement of well media with 100 μL of 100% DMSO halted the assay. Absorbance was measured at 570 nm using a SpectraMax M5 reader. A background reading at 700 nm was subtracted from the 570 nm reading. Well readings were normalized to vehicle alone treated cells (designated as 100% viable) and cells treated with 100% DMSO (designated as 0% viable).

[2] = target: T1, alpha-synuclein aggregates (Homo sapiens, UniProt P37840); test: Alpha-synuclein aggregation in DDP1 C. elegans; assay type: in vivo; conditions: for soluble versus insoluble alpha-synuclein in worm homogenate by Western blot: 100 μM on plates; for number of alpha-synuclein aggregates in the head region: 100 μM on plates from L1, day 6 of adulthood
T1 construct: host or cells: transgenic C. elegans strain DDP1 (unc-54 promoter)
Description: The DDP1 C. elegans strain overexpresses alpha-synuclein fused with yellow fluorescent protein (YFP) and cyan fluorescent protein (CFP)^22,23. FRET-positive fluorescent alpha-synuclein aggregates can then be visualized and quantified in the adult worms. […] PBS was used as a vehicle control. At day 6 of adulthood, the worms were visualized, and the number of aggregates were quantified by fluorescent microscopy. […] Treated worms were also homogenized for protein analysis by Western blot. Homogenate for each experimental condition was separated into insoluble pellet fractions (P) and soluble supernatant (S) fractions. For untreated worm homogenate, the majority of alpha-synuclein is found in the insoluble pellet.
For C. elegans experiments, the same protocol was used, except following the treatment period worms were harvested, flash frozen, then homogenized for protein extraction. The membrane was washed with TBST overnight before repeating the Western blot analysis for beta-actin (primary antibody anti-beta-actin (C4) (Santa Cruz Biotechnology, cat #sc-47778, lot #J1119; 1:500 dilution in 5% milk/TBST); horseradish peroxidase-conjugated secondary antibody (goat polyclonal anti-mouse IgG (Abcam; cat #ab205719, lot #GR3271082-2); 1:5000 dilution in 5% milk/TBST).
The DDP1 (uonExl [unc-54::αSyn::CFP+unc-54::αSyn::YFP(Venus)]) strain was acquired from the Caenorhabditis Genetics Center (CGC) and used for experiments. C. elegans were grown and maintained using standard conditions. Worms were synchronized using hypochlorite bleaching, hatched ovemight in M9 media (5 g/l NaCl, 6 g/l Na2HPO4, 3 g/l KH2PO4, […]) at 17° C., then cultured on plates with nematode growth medium (NGI; 17 g/l agar, 2.5 g/l peptone, 3 g/l NaCl 1 mM CaCl2, 1 mM MgSO4, 25 mM KH2PO4 pH 6, 5 μg/ml cholesterol) seeded with OP50 E. coli. Strains were maintained at 17° C. […] Treatment plates were then seeded with heat treated OP50 (30 min at 65° C.), according to the “NGM dead” method as previously published^36. Synchronized L1 worms were then added to the treatment plates and grown for 7 days. PBS was used as a control condition. 75 μM FUDR was added on the third day of growth. For imaging, worms were mounted onto 5% agar pads on glass slides, immobilized with 1% NaN3 solution, and imaged by fluorescent microscopy (GFP channel) using a ZEISS Axio Observer D1 fluorescence microscope. Alpha-synuclein aggregates in the head region were quantified.

[3] = target: T2, recombinant alpha-synuclein fibrils (Homo sapiens, UniProt P37840); test: Western blot of alpha-synuclein fibrils treated with compound; assay type: biochemical; conditions: 48 hours with compound
T2 construct: made in house; host or cells: E. coli BL21(DE3) Gold
Procedure: Both compounds were incubated with equimolar ratios of recombinant alpha-synuclein fibrils (100 μM:100 μM) for 48 hours at 37° C. in 1×PBS. After incubation, Thioflavin T (ThT), a fluorescent marker of amyloid fibrils, was added to the samples and ThT fluorescence was measured. EGCG was used as a positive control for comparison. […] Next, transmission electron microscopy (EM) was performed for each sample. […] To obtain a quantitative evaluation of fibril reduction, fibrils were first incubated for 72 hours with compound, then 10 micrographs from random grid points were taken for each sample, and the numbers of fibrils per image were counted (FIG. 5c). […] Western blot analysis, staining for alpha-synuclein, was performed for fibril samples incubated with compounds for 48 hours (FIG. 5d). For untreated alpha-synuclein fibrils, we see a prominent band at 14 kDa corresponding with protein monomer. […]
Samples were loaded onto a NuPAGE 12% Bis-Tris pre-cast protein gel and ran for 35 minutes at 200 V. To transfer protein from the gel to a nitrocellulose membrane an iBLOT2 dry blotting system was used. […] Signal was detected with Pierce ECL Plus Western Blotting Substrate (Cat #32132), and blot was imaged with a Pharos FX Plus Molecular Imager.

[4] = target: α-synuclein fibrils (Homo sapiens, UniProt P37840); test: Table A function: disaggregators of amyloid fibrils (alpha-synuclein)
[5] = system: AD brain-derived tau fibrils; test: Negative-stain EM and quantitative EM (qEM) of tau fibrils after compound incubation
Procedure: We then scrutinized the four CNS-Set inhibitors by quantitative EM (qEM) imaging (FIG. 3c, see Methods).
Negatively stained EM Grids were prepared by depositing 6 μl of sample on formvar/carbon coated copper grids (400 mesh) for 3 min with. Sample was rapidly wicked using filter paper without drying the grid, and stained with 1% uranyl acetate for 2 min. […] Fibrils were counted from collections of 33 micrographs (in triplicate) for each experimental condition.

[6] = system: AD brain-derived tau fibrils; test: Dot blot of AD tau aggregates with antibody GT38 during EGCG incubation; assay type: biochemical, human; conditions: EGCG incubation 1, 3, 6 and 24 hours at 37°
Procedure: Brain-derived tau PHFs were incubated with 80 μM EGCG at 37° C. in PBS various lengths of time. Samples were spotted onto nitrocellulose membrane, 20 μL were spotted for each condition, spotting 2 μL at a time and allowing to dry in between. Membrane was blocked for 1 hour in TBST with 5% milk and washed with TBST three times. Membrane was then incubated with primary antibody (either anti-tau GT38 (obtained from Virginia Lee lab at UPenn) or anti-phospho-tau AT8 (cat #MN1020, lot #UL2906281Z), 1:4000 dilution in 2% milk/TBST solution) for 1 hour, washed three times with TBST, incubated with horseradish peroxidase-conjugated secondary antibody (goat anti-mouse IgG H and L (HRP); 1:5000 Dilution in 2% milk/TBST), and washed three times in TBST. Signal was detected with Pierce ECL Plus Western Blotting Substrate (cat #32132), and blot was imaged with a Pharos FX Plus Molecular Imager.

SMILES	rescue of alpha-synuclein fibril cytotoxicity [1]	soluble versus insoluble alpha-synuclein in worm homogenate by Western blot [2]	number of alpha-synuclein aggregates in the head region [2]	higher molecular weight alpha-synuclein species by Western blot [3]	Function [4]	appearance of fibrils in negative stain electron micrographs ([5]; 3-hour EGCG incubation)	appearance of fibrils in negative stain electron micrographs ([5]; 24 hours of EGCG incubation)	fibrils seen by electron microscopy (qualitative) ([5]; tau fibrils treated with each compound)	time at which reduction in GT38-positive tau aggregate level begins [6] [h]
Cc1cc(C)c(NC(=O)Cn2nc3c4c(cccc4c2=O)-c2ccccc2-3)c(C)c1 [CNS-11, N-mesityl-2-(3-oxoindeno[1,2,3-de]phthalazin-2(3H)-yl)acetamide]	no rescue of toxicity at any concentration; also recorded: unable to rescue	solubilization of the alpha-synuclein	reduction of total aggregates	reduction in the higher molecular weight species					
Cc1cccc(C)c1NC(=O)Cn1nc(Cc2ccccc2)c2ccccc2c1=O [CNS-11g, 2-(4-benzyl-1-oxophthalazin-2-yl)-N-(2,6-dimethylphenyl)acetamide]		solubilization of the alpha-synuclein	reduction of total aggregates	reduction in the higher molecular weight species	Dissociate α- synuclein fibrils				
O=C(O[C@@H]1Cc2c(O)cc(O)cc2O[C@@H]1c1cc(O)c(O)c(O)c1)c1cc(O)c(O)c(O)c1 [EGCG, epigallocatechin gallate]						largely intact but somewhat swollen	nearly gone	Few fibrils	1 to 3
